Source: PubChem BioAssay AID504843 (Broad Institute, 2011)
Calls of active or inactive are those of the source. No rule for the calls is given here.

System: bacterial growth, BacTiter-Glo ATP luminescence
Assay: bacterial growth inhibition, dose response, counter-screen, BacTiter-Glo luminescence, cherry-picked samples (AID 504843);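 also: growth measured after 8 h incubation at 30 °C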

CO[C@H]1C=CO[C@@]2(C)Oc3c(C)c(O)c4c(O)c(c(C=NN5CCN(C)CC5)c(O)c4c3C2=O)NC(=O)C(C)=CC=C[C@H](C)[C@H](O)[C@@H](C)[C@@H](O)[C@@H](C)[C@H](OC(C)=O)[C@@H]1C
AC50: > 15 µM (inactive)
